In patent publication US20200276139A1 (Evoke Pharma, Inc., priority 2017, published 2020):

Experiments:
[1] = Reglan package insert; cited from earlier work
[2] = Study METO-IN-006: open-label, randomized, 4-treatment crossover pharmacokinetic/bioequivalence study of intranasal metoclopramide (Gimoti 15, 16, 17 mg) vs Reglan Tablets 10 mg; assay type: in vivo, human; details: for AUC0-inf Inter-CV % (Between-Subject) / AUC0-inf Intra-CV % (Within-Subject) / AUC0-t Inter-CV % (Between-Subject) / AUC0-t Intra-CV % (Within-Subject) / Cmax Inter-CV % (Between-Subject) / Cmax Intra-CV % (Within-Subject): bioequivalence analysis over all treatments
Source text: In the study, approximately 108 healthy subjects may be enrolled to allow approximately 100 subjects to complete the study.
The pharmacokinetic study will be an open-label, randomized, 4-treatment, 4-period, 4-sequence crossover study. […] Further, the subjects will undergo screening, in which the eligibility of the subjects will be assessed after completion of inclusion and exclusion criteria. […] Samples will be collected over many hours after the dose. Subjects will return to the clinic after the minimum washout for subsequent doses until the four-period cross-over is completed.
Blood samples will be collected prior to dosing, and at predetermined time periods after each dose. […] Relevant pharmacokinetic parameters will be summarized using descriptive statistics.
Collect blood from a subject. • 2. Gently mix the collected blood prior to centrifugation and place immediately on ice. • 3. Centrifuge the sample in a refrigerated centrifuge. • 4. Immediately following centrifugation, gently remove plasma from the packed cells. • 5. Freeze the plasma samples immediately at approximately −20° C. or lower.

[3] = as above; assay type: in vivo, human; details: overall population; 16 and 17 mg doses; prior comparative bioavailability study

AUC0-inf Inter-CV % (Between-Subject) ([2]; Female): 43.72% | AUC0-inf Intra-CV % (Within-Subject) ([2]; Female): 48.14% | AUC0-t Inter-CV % (Between-Subject) ([2]; Female): 43.12% | AUC0-t Intra-CV % (Within-Subject) ([2]; Female): 52.62% | Cmax Inter-CV % (Between-Subject) ([2]; Female): 35.03% | Cmax Intra-CV % (Within-Subject) ([2]; Female): 58.04% | AUC0-inf Inter-CV % (Between-Subject) ([2]; Male): 44.81% | AUC0-inf Intra-CV % (Within-Subject) ([2]; Male): 55.82% | AUC0-t Inter-CV % (Between-Subject) ([2]; Male): 52.65% | AUC0-t Intra-CV % (Within-Subject) ([2]; Male): 62.88% | Cmax Inter-CV % (Between-Subject) ([2]; Male): 54.25% | Cmax Intra-CV % (Within-Subject) ([2]; Male): 78.31% | bioequivalence criteria for AUC [3]: met the bioequivalence criteria
SMILES: CCN(CC)CCNC(=O)c1cc(Cl)c(N)cc1OC [metoclopramide, 4-amino-5-chloro-N-(2-(diethylamino)ethyl)-2-methoxybenzamide]
plasma protein binding [1]: approximately 30% | volume distribution of metoclopramide [1]: approximately 3.5 L/kg | AUC∞, AUCt, and Cmax, women versus men ([2]; each dose of metoclopramide tested): significantly higher in women than in men | Treatment Emergent Adverse Events (TEAEs) and other safety parameters, males vs females ([2]; review of data of both studies): no differences between males and females
